# PubChem BioAssay (NCI)
#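 Briefly, cells in 96-well plates were exposed to five compound concentrations for 48 h, and endpoints were estimated by linear interpolation. GI50 = concentration required for 50% inhibition of growth. TGI is the concentration that stops growth completely.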
# Key:
# Experiment in all cases: NCI tumour cell line growth inhibition, 48 h
# A498 renal = test system: A498 renal
# A549 NSCLC = test system: A549 NSCLC
# ACHN renal = test system: ACHN renal
# BT-549 breast = test system: BT-549 breast
# CAKI-1 renal = test system: CAKI-1 renal
# CCRF-CEM leukemia = test system: CCRF-CEM leukemia
# COLO 205 colon = test system: COLO 205 colon
# DU-145 prostate = test system: DU-145 prostate
# EKVX NSCLC = test system: EKVX NSCLC
# HCC-2998 colon = test system: HCC-2998 colon
# HCT-116 colon = test system: HCT-116 colon
# HCT-15 colon = test system: HCT-15 colon
# HL-60(TB) leukemia = test system: HL-60(TB) leukemia
# HOP-62 NSCLC = test system: HOP-62 NSCLC
# HOP-92 NSCLC = test system: HOP-92 NSCLC
# HS 578T breast = test system: HS 578T breast
# HT29 colon = test system: HT29 colon
# IGROV1 ovarian = test system: IGROV1 ovarian
# K-562 leukemia = test system: K-562 leukemia
# KM12 colon = test system: KM12 colon
# LOX IMVI melanoma = test system: LOX IMVI melanoma
# MALME-3M melanoma = test system: MALME-3M melanoma
# MCF7 breast = test system: MCF7 breast
# MDA-MB-231 breast = test system: MDA-MB-231 breast
# MDA-MB-435 = test system: MDA-MB-435
# MOLT-4 leukemia = test system: MOLT-4 leukemia
# NCI-H226 lung = test system: NCI-H226 lung
# NCI-H23 lung = test system: NCI-H23 lung
# NCI-H460 lung = test system: NCI-H460 lung
# NCI-H522 lung = test system: NCI-H522 lung
# NCI/ADR-RES ovarian = test system: NCI/ADR-RES ovarian
# OVCAR-3 ovarian = test system: OVCAR-3 ovarian
# OVCAR-4 ovarian = test system: OVCAR-4 ovarian
# OVCAR-5 ovarian = test system: OVCAR-5 ovarian
# OVCAR-8 ovarian = test system: OVCAR-8 ovarian
# PC-3 prostate = test system: PC-3 prostate
# RPMI-8226 leukemia = test system: RPMI-8226 leukemia
# RXF 393 renal = test system: RXF 393 renal
# SF-268 CNS = test system: SF-268 CNS
# SF-295 CNS = test system: SF-295 CNS
# SK-MEL-2 melanoma = test system: SK-MEL-2 melanoma
# SK-MEL-28 melanoma = test system: SK-MEL-28 melanoma
# SK-MEL-5 melanoma = test system: SK-MEL-5 melanoma
# SK-OV-3 ovarian = test system: SK-OV-3 ovarian
# SN12C renal = test system: SN12C renal
# SNB-19 CNS = test system: SNB-19 CNS
# SNB-75 CNS = test system: SNB-75 CNS
# SR leukemia = test system: SR leukemia
# SW-620 colon = test system: SW-620 colon
# T-47D breast = test system: T-47D breast
# TK-10 renal = test system: TK-10 renal
# U251 CNS = test system: U251 CNS
# UACC-257 melanoma = test system: UACC-257 melanoma
# UACC-62 melanoma = test system: UACC-62 melanoma
# UO-31 renal = test system: UO-31 renal
smiles,measurement,setting,value
COc1cc2c(/C=C3/C(=O)Nc4c3ccc3ccccc43)c(Cl)n(C)c2cc1C,GI50,A498 renal,666 nM
same,TGI,A498 renal,3040 nM
same,GI50,A549 NSCLC,< 19.3 nM
same,TGI,A549 NSCLC,2010 nM
same,GI50,ACHN renal,400 nM
same,TGI,ACHN renal,19500 nM
same,GI50,BT-549 breast,< 10 nM
same,GI50,CAKI-1 renal,< 22.4 nM
same,TGI,CAKI-1 renal,12600 nM
same,GI50,CCRF-CEM leukemia,73.1 nM
same,TGI,CCRF-CEM leukemia,1060 nM
same,GI50,COLO 205 colon,74.6 nM
same,TGI,COLO 205 colon,180 nM
same,GI50,DU-145 prostate,235 nM
same,TGI,DU-145 prostate,599 nM
same,GI50,EKVX NSCLC,275 nM
same,TGI,EKVX NSCLC,6290 nM
same,GI50,HCC-2998 colon,< 47 nM
same,GI50,HCT-116 colon,< 44 nM
same,GI50,HCT-15 colon,899 nM
same,TGI,HCT-15 colon,12600 nM
same,GI50,HL-60(TB) leukemia,59.7 nM
same,TGI,HL-60(TB) leukemia,> 100000 nM
same,GI50,HOP-62 NSCLC,680 nM
same,TGI,HOP-62 NSCLC,16000 nM
same,GI50,HOP-92 NSCLC,705 nM
same,TGI,HOP-92 NSCLC,22400 nM
same,GI50,HS 578T breast,358 nM
same,TGI,HS 578T breast,1890 nM
same,GI50,HT29 colon,< 19.6 nM
same,GI50,IGROV1 ovarian,42.4 nM
same,TGI,IGROV1 ovarian,16100 nM
same,GI50,K-562 leukemia,194 nM
same,TGI,K-562 leukemia,21500 nM
same,GI50,KM12 colon,< 15.6 nM
same,TGI,KM12 colon,< 30.3 nM
same,GI50,LOX IMVI melanoma,137 nM
same,TGI,LOX IMVI melanoma,13700 nM
same,GI50,MALME-3M melanoma,156 nM
same,TGI,MALME-3M melanoma,19400 nM
same,GI50,MCF7 breast,< 17.9 nM
same,GI50,MDA-MB-231 breast,53.9 nM
same,TGI,MDA-MB-231 breast,882 nM
same,GI50,MDA-MB-435,< 13.2 nM
same,TGI,MDA-MB-435,< 19.7 nM
same,GI50,MOLT-4 leukemia,< 21.6 nM
same,TGI,MOLT-4 leukemia,17300 nM
same,GI50,NCI-H226 lung,1270 nM
same,TGI,NCI-H226 lung,24500 nM
same,TGI,NCI-H23 lung,14700 nM
same,GI50,NCI-H460 lung,< 18.9 nM
same,TGI,NCI-H460 lung,> 28000 nM
same,GI50,NCI-H522 lung,< 10 nM
same,TGI,NCI-H522 lung,< 12.6 nM
same,GI50,NCI/ADR-RES ovarian,24.8 nM
same,TGI,NCI/ADR-RES ovarian,62.9 nM
same,GI50,OVCAR-3 ovarian,< 26.3 nM
same,GI50,OVCAR-4 ovarian,1520 nM
same,TGI,OVCAR-4 ovarian,11600 nM
same,TGI,OVCAR-5 ovarian,10500 nM
same,GI50,OVCAR-8 ovarian,< 10 nM
same,GI50,PC-3 prostate,132 nM
same,TGI,PC-3 prostate,3570 nM
same,GI50,RPMI-8226 leukemia,< 20.4 nM
same,GI50,RXF 393 renal,20.3 nM
same,TGI,RXF 393 renal,2980 nM
same,GI50,SF-268 CNS,< 22.3 nM
same,TGI,SF-268 CNS,18700 nM
same,GI50,SF-295 CNS,< 15.4 nM
same,TGI,SF-295 CNS,< 29.1 nM
same,GI50,SK-MEL-2 melanoma,< 14.7 nM
same,TGI,SK-MEL-2 melanoma,10100 nM
same,TGI,SK-MEL-28 melanoma,> 47700 nM
same,GI50,SK-MEL-5 melanoma,636 nM
same,TGI,SK-MEL-5 melanoma,1300 nM
same,GI50,SK-OV-3 ovarian,177 nM
same,TGI,SK-OV-3 ovarian,13000 nM
same,GI50,SN12C renal,96.2 nM
same,TGI,SN12C renal,3510 nM
same,GI50,SNB-19 CNS,104 nM
same,TGI,SNB-19 CNS,8450 nM
same,TGI,SNB-75 CNS,905 nM
same,GI50,SR leukemia,38.4 nM
same,TGI,SR leukemia,22200 nM
same,GI50,SW-620 colon,1110 nM
same,TGI,SW-620 colon,11800 nM
same,GI50,T-47D breast,16900 nM
same,TGI,T-47D breast,> 100000 nM
same,GI50,TK-10 renal,378 nM
same,TGI,TK-10 renal,17300 nM
same,GI50,U251 CNS,1260 nM
same,TGI,U251 CNS,12800 nM
same,GI50,UACC-257 melanoma,< 10 nM
same,TGI,UACC-257 melanoma,29300 nM
same,GI50,UACC-62 melanoma,104 nM
same,TGI,UACC-62 melanoma,15400 nM
same,GI50,UO-31 renal,< 18.3 nM
same,TGI,UO-31 renal,6170 nM
